In ChEMBL document CHEMBL1143609, “Conformationally restricted analogues of psorospermin: design, synthesis, and bioactivity of natural-product-related bisfuranoxanthones” (J Med Chem, 2005):

Key:
Assay type in all cases: functional, cell-based
Details in all cases: Homo sapiens
[1] = tested on: NCI-H522; assay: Inhibitory concentration against H522 cell line
[2] = tested on: HT-29; assay: Inhibitory concentration against HT-29 cell line
[3] = tested on: HeLa; assay: Inhibitory concentration against HeLa cell line
[4] = tested on: HepG2; assay: Inhibitory concentration against HepG2 cell line
[5] = tested on: COLO 320; assay: Inhibitory concentration against COLO 320 cell line
[6] = tested on: MIA PaCa-2; assay: Inhibitory concentration against MIA PaCa cell line

`COc1cccc2c(=O)c3c(O)cc4c(c3oc12)[C@@H]1OC[C@](O)(CCl)[C@@H]1O4` gave an IC50 [1] of 7.14 µM, an IC50 [2] of 7.13 µM and an IC50 [3] of 7.5 µM. For the same molecule, the IC50 [4] was > 30 µM, the IC50 [5] was 0.9 µM and the IC50 [6] was 3.76 µM.

Molecule `COc1cccc2c(=O)c3c(O)cc4c(c3oc12)[C@@H]1OC[C@](O)(CO)[C@@H]1O4` has an IC50 [1] of 20 µM, an IC50 [2] of 36.7 µM and an IC50 [3] of 19 µM. For the same molecule, the IC50 [4] was > 30 µM, the IC50 [5] was 12.3 µM and the IC50 [6] was 12.3 µM.

In the case of `COc1cccc2c(=O)c3c(O)c4c(cc3oc12)O[C@@H]1[C@H]4OC[C@@]1(C)O`, the IC50 [1] is reported as > 30 µM, the IC50 [2] is reported as > 30 µM and the IC50 [3] is reported as 23.5 µM. For the same molecule, the IC50 [4] was > 30 µM, the IC50 [5] was > 30 µM and the IC50 [6] was > 30 µM.

For `COc1cccc2c(=O)c3c(O)cc4c(c3oc12)[C@@H]1OC[C@]2(CO2)[C@@H]1O4`, the IC50 [1] was 19.4 µM, the IC50 [2] was > 30 µM and the IC50 [3] was 32.5 µM. For the same molecule, the IC50 [4] was 13.1 µM, the IC50 [5] was 9.19 µM and the IC50 [6] was 10.9 µM.

For `C=C1CO[C@H]2c3c(cc(O)c4c(=O)c5cccc(OC)c5oc34)O[C@@H]12`, the IC50 [1] was > 30 µM, the IC50 [2] was > 30 µM and the IC50 [3] was > 30 µM. For the same molecule, the IC50 [4] was > 30 µM, the IC50 [5] was > 30 µM and the IC50 [6] was > 30 µM.

For `COc1cccc2c(=O)c3c(O)c4c(cc3oc12)O[C@@H]1[C@H]4OC[C@]1(C)O`, the IC50 [1] was > 30 µM, the IC50 [2] was > 30 µM and the IC50 [3] was 23.5 µM. For the same molecule, the IC50 [4] was > 30 µM, the IC50 [5] was > 30 µM and the IC50 [6] was > 30 µM.

For `COc1cccc2c(=O)c3c(O)cc4c(c3oc12)C[C@H]([C@](C)(O)CO)O4`, the IC50 [1] was > 30 µM, the IC50 [2] was > 30 µM and the IC50 [3] was > 30 µM. For the same molecule, the IC50 [4] was > 30 µM, the IC50 [5] was > 30 µM and the IC50 [6] was > 30 µM.

`COc1cccc2c(=O)c3c(O)cc4c(c3oc12)C[C@H]([C@@](C)(O)CO)O4` was tested, and the IC50 [1] was 28.4 µM, the IC50 [2] was > 30 µM and the IC50 [3] was > 30 µM. For the same molecule, the IC50 [4] was > 30 µM, the IC50 [5] was 19.2 µM and the IC50 [6] was 23.8 µM.

`COc1cc2c(c3oc4c(O)cccc4c(=O)c13)C[C@H]([C@@]1(C)CO1)O2` [PSOROSPERMIN] showed an IC50 [1] of 0.45 µM, an IC50 [2] of 0.64 µM and an IC50 [3] of 0.71 µM. It also gave an IC50 [4] of 0.38 µM, an IC50 [5] of 0.069 µM and an IC50 [6] of 0.21 µM.
